Assay results taken from ChEMBL document CHEMBL1201862, “PubChem BioAssay data set” (2004).
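Five compound concentrations were applied to cells in 96-well plates for 48 hours; endpoints were derived by simple linear interpolation of the resulting dose-response curve. GI50 = concentration required for 50% inhibition of growth.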 Calls of active or inactive are those of the source. Rule as the data show it: active = GI50 up to about 1.1 µM and inactive = higher.

Legend:
Assay in all cases: NCI anticancer screen, dose series, 48 h
ACHN = test system: ACHN
CAKI-1 = test system: CAKI-1
EKVX = test system: EKVX
HCC 2998 = test system: HCC 2998
HCT-15 = test system: HCT-15
HOP-62 = test system: HOP-62
HT-29 = test system: HT-29
Hs-578T = test system: Hs-578T
K562 = test system: K562
LOX IMVI = test system: LOX IMVI
MCF7 = test system: MCF7
MDA-MB-231 = test system: MDA-MB-231
MDA-N = test system: MDA-N
NCI/ADR-RES = test system: NCI/ADR-RES
OVCAR-3 = test system: OVCAR-3
PC-3 = test system: PC-3
SK-MEL-2 = test system: SK-MEL-2
SN12C = test system: SN12C

Compound	GI50 (ACHN)	GI50 (CAKI-1)	GI50 (EKVX)	GI50 (HCC 2998)	GI50 (HCT-15) [µM]	GI50 (HOP-62)	GI50 (HT-29)	GI50 (Hs-578T)	GI50 (K562)	GI50 (LOX IMVI)	GI50 (MCF7)	GI50 (MDA-MB-231)	GI50 (MDA-N)	GI50 (NCI/ADR-RES)	GI50 (OVCAR-3)	GI50 (PC-3)	GI50 (SK-MEL-2)	GI50 (SN12C)
COc1ccc2c(c1)CCCc1c-2nc2ccccc2c1N	13.6 µM (inactive)	9.02 µM (inactive)	6.28 µM (inactive)	1.87 µM (inactive)	12.5	1.52 µM (inactive)	3.3 µM (inactive)	17.8 µM (inactive)	5.14 µM (inactive)	8.57 µM (inactive)	11.2 µM (inactive)	5.7 µM (inactive)	10.3 µM (inactive)	12.9 µM (inactive)	12.9 µM (inactive)	10.3 µM (inactive)	15.7 µM (inactive)	4.38 µM (inactive)
C=C[C@H]1CN2CCc3c([nH]c4c([C@@H]5CCCN5C)c(O)ccc34)[C@@H]2C[C@@H]1C[C@H]1c2[nH]c3ccccc3c2CCN1C	1.92 µM (inactive)	1.61 µM (inactive)	1.58 µM (inactive)	0.177 µM (active)	1.02	1.31 µM (inactive)	1.4 µM (inactive)	1.52 µM (inactive)	0.255 µM (active)	0.179 µM (active)	1.75 µM (inactive)	1.63 µM (inactive)	0.49 µM (active)	1.61 µM (inactive)	1.36 µM (inactive)	1.41 µM (inactive)	1.91 µM (inactive)	1.54 µM (inactive)
O=C(O)c1nn(-c2ccccc2)nc1-c1nn(-c2ccccc2)nc1C(=O)O	> 100 µM (inactive)	> 100 µM (inactive)	> 100 µM (inactive)	> 100 µM (inactive)	> 100	> 100 µM (inactive)	> 100 µM (inactive)	> 100 µM (inactive)	> 100 µM (inactive)	> 100 µM (inactive)	> 100 µM (inactive)	> 100 µM (inactive)	> 100 µM (inactive)	> 100 µM (inactive)	> 100 µM (inactive)	> 100 µM (inactive)	> 100 µM (inactive)	> 100 µM (inactive)
COc1ccc(C(c2cc(OC)c(OC)c(OC)c2)N2C(=O)CCC2C(=O)O)cc1 (stereo not given)	89.3 µM (inactive)	79.6 µM (inactive)	> 100 µM (inactive)	50.2 µM (inactive)	43.9	> 100 µM (inactive)	35.6 µM (inactive)	62.1 µM (inactive)	43.8 µM (inactive)	66.8 µM (inactive)	62.4 µM (inactive)	> 100 µM (inactive)	21.1 µM (inactive)	> 100 µM (inactive)	33.8 µM (inactive)	46 µM (inactive)	46.8 µM (inactive)	> 100 µM (inactive)
CCNC(=O)Cc1nc2c(O)ncnc2n1C1OC(CO)C(O)C1O (stereo not given)	> 100 µM (inactive)	> 100 µM (inactive)	> 100 µM (inactive)	> 100 µM (inactive)	> 100	> 100 µM (inactive)	> 100 µM (inactive)	> 100 µM (inactive)	> 100 µM (inactive)	> 100 µM (inactive)	> 100 µM (inactive)	> 100 µM (inactive)	> 100 µM (inactive)	> 100 µM (inactive)	> 100 µM (inactive)	> 100 µM (inactive)	> 100 µM (inactive)	> 100 µM (inactive)
CC(=O)c1cc(I)c(O)c2ncccc12	2.43 µM (inactive)	3.08 µM (inactive)	6.49 µM (inactive)	8.17 µM (inactive)	5.13	4.36 µM (inactive)	4.42 µM (inactive)	> 10 µM (inactive)	7.55 µM (inactive)	3.85 µM (inactive)	4.73 µM (inactive)	2.55 µM (inactive)	5.02 µM (inactive)	4.35 µM (inactive)	3.21 µM (inactive)	5.71 µM (inactive)	6.35 µM (inactive)	3.69 µM (inactive)
O=C(Cn1cc(Br)c(=O)[nH]c1=O)c1ccc(-c2ccccc2)cc1	18.6 µM (inactive)	6 µM (inactive)	60 µM (inactive)	> 15.8 µM (inactive)	7.67	5.12 µM (inactive)	> 17 µM (inactive)	29.6 µM (inactive)	> 11.2 µM (inactive)	> 15.4 µM (inactive)	> 17.5 µM (inactive)	12.2 µM (inactive)	> 100 µM (inactive)	13 µM (inactive)	> 100 µM (inactive)	> 17.8 µM (inactive)	> 12.4 µM (inactive)	16.1 µM (inactive)
CN(C)CCCCN1c2ccccc2Sc2ccc(N=[N+]=[N-])cc21	3.2 µM (inactive)	5.62 µM (inactive)	13.2 µM (inactive)	1.66 µM (inactive)	3.72	11.5 µM (inactive)	2.22 µM (inactive)	5.22 µM (inactive)	2.05 µM (inactive)	2.26 µM (inactive)	2.45 µM (inactive)	7.28 µM (inactive)	1.82 µM (inactive)	9.98 µM (inactive)	6.05 µM (inactive)	3.15 µM (inactive)	3.08 µM (inactive)	8.43 µM (inactive)
O=C1NC(=O)/C(=C/c2ccc(S(=O)(=O)N/N=C/c3ccccc3)cc2)N1	> 100 µM (inactive)	> 100 µM (inactive)	> 100 µM (inactive)	> 100 µM (inactive)	> 100	> 100 µM (inactive)	> 100 µM (inactive)	> 100 µM (inactive)	> 100 µM (inactive)	> 100 µM (inactive)	> 100 µM (inactive)	> 100 µM (inactive)	> 100 µM (inactive)	> 100 µM (inactive)	> 100 µM (inactive)	> 100 µM (inactive)	> 100 µM (inactive)	> 100 µM (inactive)
CC1CN=C(N(C(=O)Nc2ccc(Cl)c(Cl)c2)c2ccccc2)S1 (stereo not given)	57.8 µM (inactive)	77.6 µM (inactive)	71.1 µM (inactive)	33.6 µM (inactive)	27	> 100 µM (inactive)	34.8 µM (inactive)	> 100 µM (inactive)	> 10 µM (inactive)	28.7 µM (inactive)	28.2 µM (inactive)	> 100 µM (inactive)	36 µM (inactive)	34.8 µM (inactive)	68.1 µM (inactive)	37.8 µM (inactive)	23 µM (inactive)	33.6 µM (inactive)
O=C(Cc1csc2[n+]1C(=O)/C(=C/c1ccc(Cl)cc1)S2)Nc1ccccc1	15.4 µM (inactive)	28.1 µM (inactive)	16.3 µM (inactive)	19.6 µM (inactive)	23.8	2.01 µM (inactive)	24.2 µM (inactive)	27.7 µM (inactive)	21.7 µM (inactive)	16.2 µM (inactive)	15.4 µM (inactive)	14.8 µM (inactive)	30.4 µM (inactive)	21.7 µM (inactive)	12.8 µM (inactive)	16.4 µM (inactive)	17.9 µM (inactive)	32.1 µM (inactive)
CC(=O)O[C@H]1[C@H](OC(=O)CC(C)(O)CC(=O)O)C[C@]2(C)C3=C(CCC2C1(C)C)[C@]1(C)CC[C@H]([C@H]2CC[C@H](C(C)(C)O)OC2O)[C@@]1(C)[C@@H](O)C3 (stereo not given in full)	15.8 µM (inactive)	16.9 µM (inactive)	17.4 µM (inactive)	15.8 µM (inactive)	17.2	16.3 µM (inactive)	16.3 µM (inactive)	16 µM (inactive)	26.2 µM (inactive)	18.5 µM (inactive)	24 µM (inactive)	14.9 µM (inactive)	18.1 µM (inactive)	> 100 µM (inactive)	16.1 µM (inactive)	18.3 µM (inactive)	18.8 µM (inactive)	17.5 µM (inactive)
C[C@H](Nc1nc(N)c(N=O)c(=O)n1C)C(=O)O	> 10 µM (inactive)	> 10 µM (inactive)	> 10 µM (inactive)	> 10 µM (inactive)	> 10	> 10 µM (inactive)	> 10 µM (inactive)	> 10 µM (inactive)	> 10 µM (inactive)	> 10 µM (inactive)	> 10 µM (inactive)	> 10 µM (inactive)	> 10 µM (inactive)	> 10 µM (inactive)	> 10 µM (inactive)	> 10 µM (inactive)	> 10 µM (inactive)	> 10 µM (inactive)
O=c1cccc2n1C[C@H]1CNC[C@H]2C1	> 100 µM (inactive)	> 100 µM (inactive)	> 100 µM (inactive)	> 100 µM (inactive)	> 100	> 100 µM (inactive)	> 100 µM (inactive)	> 100 µM (inactive)	> 100 µM (inactive)	> 100 µM (inactive)	> 100 µM (inactive)	> 100 µM (inactive)	> 100 µM (inactive)	> 100 µM (inactive)	> 100 µM (inactive)	> 100 µM (inactive)	> 100 µM (inactive)	> 100 µM (inactive)
Clc1ccc2c(NCCNc3ccnc4cc(Cl)ccc34)ccnc2c1	17.8 µM (inactive)	20.2 µM (inactive)	19.2 µM (inactive)	15.2 µM (inactive)	15.6	16.2 µM (inactive)	15.3 µM (inactive)	31.9 µM (inactive)	12.3 µM (inactive)	17.7 µM (inactive)	19.7 µM (inactive)	17 µM (inactive)	17.1 µM (inactive)	30.8 µM (inactive)	15.1 µM (inactive)	17 µM (inactive)	18.9 µM (inactive)	17.8 µM (inactive)
